Source: patent US9718823B2, “2, 6-Di-nitrogen-containing substituted purine derivative, and preparation method, pharmaceutical composition and use thereof” (Zhejiang Medicine Co., Ltd. Xinchang Pharmaceutical Factory, priority 2013, dated 2017)

Columns and labels:
Format in all cases: biochemical
[1] = target: T1, PDGFR β enzyme (Homo sapiens, UniProt P09619); assay: Inhibitory activity to PDGFR β enzyme, HTRF kinEASE TK kit; details: read-out: Inhibition rate % (PDGFR β)
T1 construct: purchased Invitrogen P3082
Experimental: HTRF kinEASE TK (Cat.62TK0PEC, Cisbio)
PDGFR β enzyme (Cat.P3082, Invitrogen)
1 mL 1×Kinase Buffer includes 200 μL 5×Enzyme buffer, 5 μL 1M MgCl2, 1 μL 1M DTT, 1 μL 1M MnCl2, 20 μL 2500 nM SEB, 773 μL ddH2O.
TK-Substrate and ATP are diluted to 2.5 times of reaction concentration with 1×PDGFR β Kinase Buffer.
5×PDGFR β enzyme working solution is prepared with 1×PDGFR β kinase buffer.
4×Sa-XL665 working solution is prepared with Detection Buffer.
TK-Ab-Cryptate is diluted 100 times with Detection Buffer to use as working solution.

[2] = target: T2, PI3Kδ (Homo sapiens, UniProt O00329); assay: Inhibitory activity to PI3K δ, PI 3-Kinase (human) HTRF Assay kit; details: read-out: Inhibition rate % to PI3Kδ; for inhibition at 1 µM: 1 μM (Table 7); for inhibition at 10 µM: 10 μM (Table 7)
T2 construct: purchased Millipore 14-604
Experimental: Study on the inhibitory activity of the compounds of present invention to PI 3κα, PI3κδ and PI3κγ.
(§1) PI 3-Kinase (human) HTRF™ Assay kit (Cat.33-017, Millipore)
For example, 10 μL DTT is added into 500 μL 4× Reaction Buffer, and water is added to 1.5 mL.
The Test compounds are dissolved with DMSO to 1 mM as storage liquid. 2 μL of each of storage liquid is added into 48 μL ddH2O, to obtain the 40 μM compounds solution containing 4% DMSO. After mixing, 3 μL of each of the solution is added into 27 μL 4% DMSO (in ddH2O) to obtain the 4 μM compounds solution. […]
The screening concentration of PI 3k δ kinase: 2 ng/well,
(§2) Kinase is diluted with 2×PIP2 operating fluid, the concentration of kinase operating fluid is 2 times of screening concentration.
The concentration of ATP is 100 μM in 20 μL kinase reaction system.
(§3) Stop A and Stop B are mixed according to the proportion of 3:1, and are placed for 2 hours at room temperature to obtain the stop solution available.
(§4) DM C, DM A and DM B are mixed according to the proportion of 18:1:1, and are placed for 2 hours at room temperature to obtain the detection solution available.

[3] = target: T3, PI3 K γ (Homo sapiens, UniProt P48736); assay: Inhibitory activity to PI3K γ, PI 3-Kinase (human) HTRF Assay kit; details: read-out: Inhibition rate % to PI3 K γ
T3 construct: purchased Biology, Medicilon
From the text: (§5) Study on the inhibitory activity of the compounds of present invention to PI 3κα, PI3κδ and PI3κγ. Two or three concentrations of the compounds are selected to preliminary screening to calculate respectively the activity inhibition rate of the compounds of corresponding concentrations to enzyme, then the compounds with better activity are selected by preliminary screening for IC50 test.
as §1
PI 3k γ (Biology, Medicilon)
(§6) 4× Reaction Buffer (Cat.33-002, Millipore) is diluted with ddH2O to 1.33×, and 1M DTT is added to make the final concentration as 6.67 mM. For example, 10 μL DTT is added into 500 μL 4× Reaction Buffer, and water is added to 1.5 mL.
(§7) The Test compounds are dissolved with DMSO to 1 mM as storage liquid. 2 μL of each of storage liquid is added into 48 μL ddH2O, to obtain the 40 μM compounds solution containing 4% DMSO. After mixing, 3 μL of each of the solution is added into 27 μL 4% DMSO (in ddH2O) to obtain the 4 μM compounds solution. 5 μL of each dilute solution is added into 384-well plates, then the final concentration of the compounds in the 20 μL final kinase reaction system is 10 μM and 1 μM respectively contained 1% DMSO. The dilution methods of compounds are similar to the preliminary screening in IC50 test.
(§8) 2×PIP2 working fluid is prepared with 1.33× reaction buffer to the final concentration of 20 μM.
The screening concentration of PI 3k γ kinase: 80 ng/well,
as §2
(§9) 10 mM ATP is diluted with 1.33× reaction buffer to 400 μM. The concentration of ATP is 100 μM in 20 μL kinase reaction system.
as §3, §4

[4] = target: T4, PI3K α (Homo sapiens, UniProt P42336); assay: Inhibitory activity to PI3K α, PI 3-Kinase (human) HTRF Assay kit; details: read-out: % Inhibition Rate to PI3K α
T4 construct: purchased Millipore 14-602
From the text: as §5, §1
PI 3k α (Cat.14-602, Millipore)
as §6, §7, §8
The screening concentration of PI 3k α kinase: 8 ng/well,
as §2, §9, §3, §4

T1 sequence (P09619 33-1106): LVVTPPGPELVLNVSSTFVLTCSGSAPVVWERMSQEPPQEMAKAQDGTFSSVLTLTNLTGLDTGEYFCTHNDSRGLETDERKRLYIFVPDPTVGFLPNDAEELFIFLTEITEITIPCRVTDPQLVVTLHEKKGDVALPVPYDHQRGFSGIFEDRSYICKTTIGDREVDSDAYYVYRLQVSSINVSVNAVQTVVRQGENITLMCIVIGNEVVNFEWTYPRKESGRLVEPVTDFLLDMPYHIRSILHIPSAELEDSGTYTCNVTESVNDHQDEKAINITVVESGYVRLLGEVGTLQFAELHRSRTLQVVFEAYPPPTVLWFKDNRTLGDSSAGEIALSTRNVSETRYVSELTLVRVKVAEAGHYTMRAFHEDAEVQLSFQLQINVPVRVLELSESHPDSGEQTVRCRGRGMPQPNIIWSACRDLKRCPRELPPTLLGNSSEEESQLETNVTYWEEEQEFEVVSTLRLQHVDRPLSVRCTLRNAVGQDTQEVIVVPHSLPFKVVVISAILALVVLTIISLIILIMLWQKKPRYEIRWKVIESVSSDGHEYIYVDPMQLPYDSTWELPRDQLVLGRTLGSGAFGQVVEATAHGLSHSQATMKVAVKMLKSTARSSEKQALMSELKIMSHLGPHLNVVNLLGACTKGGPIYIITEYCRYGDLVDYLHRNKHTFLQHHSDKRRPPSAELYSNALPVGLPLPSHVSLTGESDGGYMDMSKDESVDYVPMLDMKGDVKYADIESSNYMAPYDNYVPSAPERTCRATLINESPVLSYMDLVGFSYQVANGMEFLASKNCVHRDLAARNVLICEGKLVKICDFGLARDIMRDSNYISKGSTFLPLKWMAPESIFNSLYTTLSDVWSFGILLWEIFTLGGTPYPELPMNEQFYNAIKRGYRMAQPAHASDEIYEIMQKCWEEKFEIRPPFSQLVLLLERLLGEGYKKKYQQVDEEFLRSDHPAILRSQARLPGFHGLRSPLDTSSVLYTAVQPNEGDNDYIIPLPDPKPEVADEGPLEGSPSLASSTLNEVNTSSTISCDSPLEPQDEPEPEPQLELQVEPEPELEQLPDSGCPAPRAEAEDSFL
T2 sequence (O00329 whole entry): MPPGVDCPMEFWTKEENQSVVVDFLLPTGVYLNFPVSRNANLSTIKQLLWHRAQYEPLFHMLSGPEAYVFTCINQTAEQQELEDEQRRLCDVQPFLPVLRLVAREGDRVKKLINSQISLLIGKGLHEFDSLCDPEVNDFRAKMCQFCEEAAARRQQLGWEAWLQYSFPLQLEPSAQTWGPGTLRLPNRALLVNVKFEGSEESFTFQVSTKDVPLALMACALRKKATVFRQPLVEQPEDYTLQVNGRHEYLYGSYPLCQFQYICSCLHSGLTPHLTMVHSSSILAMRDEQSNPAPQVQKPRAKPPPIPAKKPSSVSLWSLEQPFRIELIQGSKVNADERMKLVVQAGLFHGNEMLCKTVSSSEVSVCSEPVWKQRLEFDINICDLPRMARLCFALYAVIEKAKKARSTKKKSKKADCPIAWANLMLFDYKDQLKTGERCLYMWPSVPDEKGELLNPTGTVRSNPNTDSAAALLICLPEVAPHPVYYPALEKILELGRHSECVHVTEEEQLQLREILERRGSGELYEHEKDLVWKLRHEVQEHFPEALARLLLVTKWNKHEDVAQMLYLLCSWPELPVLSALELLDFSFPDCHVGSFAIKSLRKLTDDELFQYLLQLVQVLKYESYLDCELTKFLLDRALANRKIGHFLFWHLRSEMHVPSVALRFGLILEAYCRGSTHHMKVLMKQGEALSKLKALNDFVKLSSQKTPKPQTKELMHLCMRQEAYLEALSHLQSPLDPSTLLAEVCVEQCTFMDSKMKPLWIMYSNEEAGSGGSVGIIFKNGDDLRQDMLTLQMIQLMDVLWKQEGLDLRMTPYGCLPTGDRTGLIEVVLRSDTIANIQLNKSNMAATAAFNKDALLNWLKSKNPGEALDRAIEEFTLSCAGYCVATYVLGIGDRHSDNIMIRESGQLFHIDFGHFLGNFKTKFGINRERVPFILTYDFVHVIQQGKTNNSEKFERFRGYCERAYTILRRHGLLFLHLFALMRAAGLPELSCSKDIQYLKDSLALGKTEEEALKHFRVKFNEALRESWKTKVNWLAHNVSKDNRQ
T2 sequence (P27986 whole entry partner): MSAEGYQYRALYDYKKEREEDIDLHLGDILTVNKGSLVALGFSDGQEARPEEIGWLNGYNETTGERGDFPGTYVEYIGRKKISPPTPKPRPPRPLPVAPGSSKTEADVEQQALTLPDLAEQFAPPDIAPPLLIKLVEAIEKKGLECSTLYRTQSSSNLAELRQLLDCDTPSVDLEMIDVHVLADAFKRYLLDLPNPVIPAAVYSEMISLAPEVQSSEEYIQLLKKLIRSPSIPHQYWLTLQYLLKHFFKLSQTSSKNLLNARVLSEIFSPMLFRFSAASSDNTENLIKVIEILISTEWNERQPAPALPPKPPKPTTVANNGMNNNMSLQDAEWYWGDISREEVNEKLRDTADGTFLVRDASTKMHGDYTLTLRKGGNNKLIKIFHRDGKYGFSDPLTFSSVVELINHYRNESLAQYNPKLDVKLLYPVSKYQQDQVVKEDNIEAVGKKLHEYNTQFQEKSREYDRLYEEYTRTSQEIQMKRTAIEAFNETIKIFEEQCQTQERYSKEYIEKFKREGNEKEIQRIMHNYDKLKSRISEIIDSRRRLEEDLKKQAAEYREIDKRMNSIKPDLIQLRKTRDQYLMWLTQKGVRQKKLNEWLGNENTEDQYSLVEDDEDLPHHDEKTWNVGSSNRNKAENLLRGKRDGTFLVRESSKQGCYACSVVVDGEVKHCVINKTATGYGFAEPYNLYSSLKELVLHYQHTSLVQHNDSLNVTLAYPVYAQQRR
T3 sequence (P48736 whole entry): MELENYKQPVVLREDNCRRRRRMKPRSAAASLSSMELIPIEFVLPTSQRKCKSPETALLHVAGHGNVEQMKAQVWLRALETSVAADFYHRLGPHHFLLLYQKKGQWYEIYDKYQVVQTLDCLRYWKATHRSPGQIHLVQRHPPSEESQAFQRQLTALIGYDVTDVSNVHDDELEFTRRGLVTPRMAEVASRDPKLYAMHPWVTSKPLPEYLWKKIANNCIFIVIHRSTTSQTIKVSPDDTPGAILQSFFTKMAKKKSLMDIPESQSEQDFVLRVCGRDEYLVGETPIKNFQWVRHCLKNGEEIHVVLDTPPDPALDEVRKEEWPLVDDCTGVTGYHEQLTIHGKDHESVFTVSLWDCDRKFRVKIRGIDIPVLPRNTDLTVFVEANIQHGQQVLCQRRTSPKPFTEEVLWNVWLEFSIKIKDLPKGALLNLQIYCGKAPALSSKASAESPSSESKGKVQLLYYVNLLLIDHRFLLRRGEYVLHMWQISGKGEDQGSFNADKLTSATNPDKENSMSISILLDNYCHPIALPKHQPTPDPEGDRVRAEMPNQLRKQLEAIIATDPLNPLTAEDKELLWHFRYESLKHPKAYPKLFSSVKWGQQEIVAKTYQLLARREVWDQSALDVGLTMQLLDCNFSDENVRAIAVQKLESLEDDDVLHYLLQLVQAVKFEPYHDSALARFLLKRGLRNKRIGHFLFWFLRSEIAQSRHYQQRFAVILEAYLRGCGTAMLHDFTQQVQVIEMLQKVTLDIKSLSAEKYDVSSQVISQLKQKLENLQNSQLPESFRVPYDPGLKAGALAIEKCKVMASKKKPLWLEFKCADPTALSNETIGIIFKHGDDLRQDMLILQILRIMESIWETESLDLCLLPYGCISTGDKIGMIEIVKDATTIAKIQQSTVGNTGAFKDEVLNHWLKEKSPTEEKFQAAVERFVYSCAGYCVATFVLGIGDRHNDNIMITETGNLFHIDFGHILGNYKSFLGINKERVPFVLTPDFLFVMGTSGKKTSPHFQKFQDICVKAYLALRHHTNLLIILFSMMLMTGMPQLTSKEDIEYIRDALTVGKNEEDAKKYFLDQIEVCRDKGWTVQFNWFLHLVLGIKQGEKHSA
T4 sequence (P42336 whole entry): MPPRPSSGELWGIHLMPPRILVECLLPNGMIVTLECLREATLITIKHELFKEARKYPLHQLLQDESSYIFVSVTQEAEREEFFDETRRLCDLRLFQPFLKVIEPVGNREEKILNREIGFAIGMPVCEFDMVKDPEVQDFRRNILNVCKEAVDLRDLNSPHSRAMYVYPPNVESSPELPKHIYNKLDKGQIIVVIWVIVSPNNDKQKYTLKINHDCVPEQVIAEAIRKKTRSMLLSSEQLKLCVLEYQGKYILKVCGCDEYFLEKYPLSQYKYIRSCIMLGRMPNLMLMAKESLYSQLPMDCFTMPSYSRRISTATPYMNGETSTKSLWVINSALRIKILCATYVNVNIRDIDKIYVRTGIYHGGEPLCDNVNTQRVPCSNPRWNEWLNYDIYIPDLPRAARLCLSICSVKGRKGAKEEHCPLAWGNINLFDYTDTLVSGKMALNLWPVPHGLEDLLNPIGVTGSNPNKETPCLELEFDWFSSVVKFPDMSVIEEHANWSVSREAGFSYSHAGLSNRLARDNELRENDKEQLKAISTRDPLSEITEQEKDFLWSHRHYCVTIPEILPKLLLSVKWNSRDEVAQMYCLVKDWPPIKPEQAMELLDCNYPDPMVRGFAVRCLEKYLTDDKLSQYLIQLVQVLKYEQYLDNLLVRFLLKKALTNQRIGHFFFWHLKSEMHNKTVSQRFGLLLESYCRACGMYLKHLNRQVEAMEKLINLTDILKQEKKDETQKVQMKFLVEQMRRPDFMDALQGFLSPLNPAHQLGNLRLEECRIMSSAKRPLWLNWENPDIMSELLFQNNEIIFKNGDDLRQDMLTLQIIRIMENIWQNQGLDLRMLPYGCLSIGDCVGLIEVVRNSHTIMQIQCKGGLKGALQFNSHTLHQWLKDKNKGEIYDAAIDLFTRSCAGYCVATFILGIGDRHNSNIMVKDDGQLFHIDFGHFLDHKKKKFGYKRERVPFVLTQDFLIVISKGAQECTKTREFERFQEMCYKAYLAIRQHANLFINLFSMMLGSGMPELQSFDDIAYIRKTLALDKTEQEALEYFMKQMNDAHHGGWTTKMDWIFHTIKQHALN
T4 sequence (P27986 whole entry partner): as the sequence (P27986 whole entry partner) above

| SMILES | inhibition at 1 µM [1] | inhibition at 10 µM [1] | inhibition at 1 µM [2] | inhibition at 10 µM [2] | inhibition at 1 µM [3] | inhibition at 10 µM [3] | inhibition at 1 µM [4] | inhibition at 10 µM [4] |
| --- | --- | --- | --- | --- | --- | --- | --- | --- |
| Fc1cccc(-c2ccnc3ccc(Nc4nc(NC5CC5)c5nc[nH]c5n4)cc23)c1 [MED1007-64, N6-cyclopropyl-N2-(4-(3-fluorophenyl)quinoline-6-yl)-9H-purine-2,6-diamine] | -3.26% | 20.1% | 14.1% | 88.7% | -4.23% | 15.9% | – | – |
| FC(F)(F)Cn1cnc2c(NC3CC3)nc(Nc3ccc4nccc(-c5ccccc5)c4c3)nc21 [MED1007-65, N6-cyclopropyl-N2-(4-phenylquinoline-6-yl)-9-(2,2,2-trifluoroethyl)-9H-purine-2,6-diamine] | 21.5% | 14% | 7.48% | 38.4% | 1.54% | 37.2% | 0.69% | 10.2% |
| c1ccc(-c2ccnc3ccc(Nc4nc(NC5CC5)c5ncn(C6CCNCC6)c5n4)cc23)cc1 [MED1007-66, N6-cyclopropyl-N2-(4-phenylquinoline-6-yl)-9-(piperidine-4-yl)-9H-purine-2,6-diamine] | 17% | 14.5% | 4.75% | 19.8% | 1.48% | -2.46% | -2.28% | -4.35% |
| COCCCNc1nc(Nc2ccc3nccc(-c4ccccc4)c3c2)nc2[nH]cnc12 [MED1007-67, N6-(3-methoxypropyl)-N2-(4-phenylquinoline-6-yl)-9H-purine-2,6-diamine] | 22.2% | 18.7% | 11.3% | 32% | 0.71% | 10.2% | 3.77% | 37.2% |
| COCCNc1nc(Nc2ccc3nccc(-c4ccccc4)c3c2)nc2[nH]cnc12 [MED1007-68, N6-(2-methoxyethyl)-N2-(4-phenylquinoline-6-yl)-9H-purine-2,6-diamine] | 18.7% | 11.7% | 20.7% | 42.3% | -0.02% | 10.8% | 7.74% | 51.9% |
| OCCNc1nc(Nc2ccc3nccc(-c4ccccc4)c3c2)nc2[nH]cnc12 [MED1007-69, 2-(2-(4-phenylquinoline-6-ylamino)-9H-purine-6-ylamino) ethanol] | 11.7% | 31.8% | 28.9% | 36.4% | 1.27% | 21.1% | 38.8% | 78.2% |
| NCCNc1nc(Nc2ccc3nccc(-c4ccccc4)c3c2)nc2[nH]cnc12 [MED1007-70, N6-(2-aminoethyl 1)-N2-(4-phenylquinoline-6-yl)-9H-purine-2,6-diamine] | 33.4% | 73% | 41% | 51.6% | 5.26% | 10.8% | 26.6% | 62.5% |

Continued, values first:

| inhibition at 1 µM [1] | inhibition at 10 µM [1] | inhibition at 1 µM [2] | inhibition at 10 µM [2] | inhibition at 1 µM [3] | inhibition at 10 µM [3] | inhibition at 1 µM [4] | inhibition at 10 µM [4] | SMILES |
| --- | --- | --- | --- | --- | --- | --- | --- | --- |
| 9.74% | 4.5% | 24.4% | 64.4% | 2.55% | 47.4% | 10.4% | 75% | COc1cccc(-c2ccnc3ccc(Nc4nc(NC5CCC5)c5nc[nH]c5n4)cc23)c1 [MED1007-71, N6-cyclobutyl-N2-(4-(3-methoxyphenyl)quinoline-6-yl)-9H-purine-2,6-diamine] |
| 7.25% | 2.5% | 33.9% | 89.5% | 2.15% | 42.7% | 8.78% | 65.9% | Fc1ccc(-c2ccnc3ccc(Nc4nc(NC5CCC5)c5nc[nH]c5n4)cc23)cc1 [MED1007-72, N6-cyclobutyl-N2-(4-(4-fluorophenyl)quinoline-6-yl)-9H-purine-2,6-diamine] |
| 17% | 35% | 6.41% | 66.5% | 5.49% | 28.4% | 29.7% | 66.1% | OCCCNc1nc(Nc2ccc3nccc(-c4ccccc4)c3c2)nc2[nH]cnc12 [MED1007-73, 3-(2-(4-phenylquinoline-6-ylamino)-9H-purine-6-ylamino) propyl-1-ol] |
| 13.2% | 8.74% | 10.9% | 42.6% | 6.93% | 10.9% | 11.1% | 51.3% | c1ccc(-c2ccnc3ccc(Nc4nc(NC5CCC5)c5nc[nH]c5n4)cc23)cc1 [MED1007-75, N6-cyclobutyl-N2-(4-phenylquinoline-6-yl)-9H-purine-2,6-diamine] |
| 4.5% | 7.6% | 22.7% | 68.5% | 5.93% | 24% | 36.2% | 87.6% | CCOc1cccc(-c2ccnc3ccc(Nc4nc(NC5CC5)c5nc[nH]c5n4)cc23)c1 [MED1007-83, N6-cyclopropyl-N2-(4-(3-ethoxyphenyl)quinoline-6-yl)-9H-purine-2,6-diamine] |
| -8.59% | 13.4% | 71.8% | 101% | 26.6% | 34.2% | 58.7% | 99.2% | COc1ccc(-c2ccnc3ccc(Nc4nc(NC5CC5)c5nc[nH]c5n4)cc23)cc1OC [MED1007-84, N6-cyclopropyl-N2-(4-(3,4-dimethoxyphenyl)quinoline-6-yl)-9H-purine-2,6-diamine] |
| -3.44% | 29.8% | 54.1% | 113% | 16.8% | 41.9% | 66.2% | 90.1% | c1cc(-c2ccc3c(c2)OCO3)c2cc(Nc3nc(NC4CC4)c4nc[nH]c4n3)ccc2n1 [MED1007-85, N2-(4-(benzo[1,3]-dioxole-5-yl)quinoline-6-yl)-N6-cyclopropane-9H-purine-2,6-diamine] |
| – | – | 32.9% | 89.1% | – | – | 24.4% | 97.4% | c1ccc(-c2ccnc3ccc(Nc4nc(NC5CCCC5)c5nc[nH]c5n4)cc23)cc1 [MED1007-106, N6-cyclopentyl-N2-(4-phenylquinoline-6-yl)-9H-purine-2,6-diamine] |
| – | – | 29.3% | 119% | – | – | 29.9% | 65.8% | c1ccc(-c2ccnc3ccc(Nc4nc(OC5CCCCC5)c5nc[nH]c5n4)cc23)cc1 [MED1007-107, N-(6-cyclohexyloxy-9H-purine-2-yl)-4-phenyl quinoline-6-amine] |
